# Test results reported in patent US12281102B2, “Inhibitors of APOL1 and methods of using same” (Vertex Pharmaceuticals Incorporated, priority 2020, dated 2025).
# Target: T1, G1 APOL1 (Homo sapiens, UniProt O14791, I384M/S342G)
# T1 construct: expressed in transfected cells
# T1 sequence (O14791 28-398 S342G/I384M): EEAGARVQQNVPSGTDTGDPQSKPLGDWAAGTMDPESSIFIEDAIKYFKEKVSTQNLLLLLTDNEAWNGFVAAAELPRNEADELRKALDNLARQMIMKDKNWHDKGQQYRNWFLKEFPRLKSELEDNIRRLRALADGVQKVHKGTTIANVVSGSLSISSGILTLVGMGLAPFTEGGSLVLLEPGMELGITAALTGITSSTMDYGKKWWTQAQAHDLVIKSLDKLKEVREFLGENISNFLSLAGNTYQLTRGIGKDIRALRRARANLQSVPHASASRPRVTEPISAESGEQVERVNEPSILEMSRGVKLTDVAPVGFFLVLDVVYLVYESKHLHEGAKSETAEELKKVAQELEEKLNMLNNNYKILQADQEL
# Assay: Acute APOL1 Thallium Assay with inducible stable clones of HEK 293 cells
# Assay type: cell-based
# Conditions: HEK 293 T-Rex inducible stable clone expressing G1 APOL1; read-out: Thallium Assay (IC50)
# Method in brief: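 APOL1 pore function was measured as thallium influx, detected by a Tl+-sensitive fluorescent dye loaded as AM ester, on a FLIPR Tetra after Tl+ addition. Cells were HEK T-Rex G1 APOL1 clone DC3.25, 26,000 per well, induced with tetracycline at plating in Opti-MEM assay medium.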
row,IC50 [nM],SMILES
1,> 1000,CCS(=O)(=O)NCC(=O)NC[C@H]1C[C@@H](c2c(-c3ccc(F)cc3)[nH]c3c(F)cc(F)cc32)C1 [Compound 263]
2,> 1000,O=C1CCCN1CCCNS(=O)(=O)NC[C@H]1C[C@H](c2c(-c3ccc(F)cc3)[nH]c3c(F)cc(F)cc32)C1 [Compound 335]
3,> 1000,CN1CCC(CC(=O)NC[C@H]2C[C@@H](c3c(-c4ccc(F)cc4)[nH]c4c(F)cc(F)cc43)C2)C1 (stereo partly shown) [Compound 260]
4,250 to 1000,O=S(=O)(NC[C@H]1C[C@H](c2c(-c3ccc(F)cc3)[nH]c3c(F)cc(F)cc32)C1)NC1(CO)CCC1 [Compound 355]
5,< 250,"N[C@H]1C[C@H](Cc2c(-c3ccc(F)cc3)[nH]c3c(F)cc(F)cc23)C1 [Compound 157, trans-3-[[5,7-difluoro-2-(4-fluorophenyl)-1H-indol-3-yl]methyl]cyclobutanamine]"
6,> 1000,O=C(CCN1CCCCC1)N[C@H]1C[C@H](c2c(-c3ccc(F)cc3)[nH]c3c(F)cc(F)cc32)C1 [Compound 124]
7,250 to 1000,"O[C@H]1C[C@@H](c2c(-c3ccc(F)cc3)[nH]c3c(F)cc(F)cc32)C1 [Compound 175, (1s,3s)-3-(5,7-difluoro-2-(4-fluorophenyl)-1H-indol-3-yl)cyclobutan-1-ol]"
8,> 1000,C[C@@H](N)C(=O)NC[C@H]1C[C@H](c2c(-c3ccc(F)cc3)[nH]c3c(F)cc(F)cc32)C1 [Compound 236]
9,250 to 1000,CCS(=O)(=O)NC[C@H]1C[C@H](c2c(-c3ccc(F)cc3)[nH]c3c(F)cc(F)cc32)C1 [Compound 413]
10,> 1000,O=S(=O)(NC[C@H]1C[C@H](c2c(-c3ccc(F)cc3)[nH]c3c(F)cc(F)cc32)C1)N[C@H]1C[C@H](O)C1 [Compound 344]
11,> 1000,CC(C)C(O)C(=O)NC[C@H]1C[C@@H](c2c(-c3ccc(F)cc3)[nH]c3c(F)cc(F)cc32)C1 (stereo partly shown) [Compound 301]
12,> 1000,O=S(=O)(NC[C@@H](O)CO)NC[C@H]1C[C@H](c2c(-c3ccc(F)cc3)[nH]c3c(F)cc(F)cc32)C1 [Compound 352]
13,> 1000,O=C(NC[C@H]1C[C@H](c2c(-c3ccc(F)cc3)[nH]c3c(F)cc(F)cc32)C1)[C@@H]1C[C@H](O)CN1 [Compound 254]
14,> 1000,O=C(NC[C@H]1C[C@H](c2c(-c3ccc(F)cc3)[nH]c3c(F)cc(F)cc32)C1)[C@@H]1C[C@H](F)CN1 [Compound 246]
15,> 1000,C[C@H](CO)NCC1CC(c2c(-c3ccc(F)cc3)[nH]c3c(F)cc(F)cc23)C1 (stereo partly shown) [Compound 394]
16,> 1000,O=C(NC[C@H]1C[C@H](c2c(-c3ccc(F)cc3)[nH]c3c(F)cc(F)cc32)C1)[C@H]1C[C@@H](O)CN1 [Compound 275]
17,> 1000,Cn1ccnc1S(=O)(=O)N[C@H]1C[C@@H](c2c(-c3ccc(F)cc3)[nH]c3c(F)cc(F)cc32)C1 [Compound 85]
18,> 1000,C[C@@H](CO)NCC1CC(c2c(-c3ccc(F)cc3)[nH]c3c(F)cc(F)cc23)C1 (stereo partly shown) [Compound 389]
19,250 to 1000,CC(CCO)NS(=O)(=O)NC[C@H]1C[C@H](c2c(-c3ccc(F)cc3)[nH]c3c(F)cc(F)cc32)C1 (mixture of isomers) [Compound 362]
20,> 1000,O=C(CCN1CCCC1=O)N[C@H]1C[C@H](c2c(-c3ccc(F)cc3)[nH]c3c(F)cc(F)cc32)C1 [Compound 114]
21,> 1000,O=C(Cc1ncccn1)NC[C@H]1C[C@H](c2c(-c3ccc(F)cc3)[nH]c3c(F)cc(F)cc32)C1 [Compound 248]
22,> 1000,CN1CCCC(CC(=O)N[C@H]2C[C@H](c3c(-c4ccc(F)cc4)[nH]c4c(F)cc(F)cc43)C2)C1 (stereo partly shown) [Compound 104]
23,> 1000,O=C1CCC(CNS(=O)(=O)NC[C@H]2C[C@H](c3c(-c4ccc(F)cc4)[nH]c4c(F)cc(F)cc43)C2)N1 (stereo partly shown) [Compound 340]
24,< 250,O=S(=O)(NCCO)NC[C@H]1C[C@H](c2c(-c3ccc(F)cc3)[nH]c3c(F)cc(F)cc32)C1 [Compound 339]
25,> 1000,Cn1cnc(CNS(=O)(=O)NC[C@H]2C[C@H](c3c(-c4ccc(F)cc4)[nH]c4c(F)cc(F)cc43)C2)c1 [Compound 367]
26,> 1000,NC(=O)CC(=O)NC[C@H]1C[C@@H](c2c(-c3ccc(F)cc3)[nH]c3c(F)cc(F)cc32)C1 [Compound 243]
27,> 1000,O=C(CN1CCOCC1)N[C@H]1C[C@@H](c2c(-c3ccc(F)cc3)[nH]c3c(F)cc(F)cc32)C1 [Compound 57]
28,250 to 1000,O=C(NC[C@H]1C[C@@H](c2c(-c3ccc(F)cc3)[nH]c3c(F)cc(F)cc32)C1)C1COC1 [Compound 226]

row,IC50 [nM],SMILES
1,> 1000,OCC1(NCC2CC(c3c(-c4ccc(F)cc4)[nH]c4c(F)cc(F)cc34)C2)COC1 (stereo not shown) [Compound 390]
2,< 250,"C[C@H](N)C(=O)NC[C@H]1C[C@H](c2c(-c3ccc(F)cc3)[nH]c3c(F)cc(F)cc32)C1 [Compound 189, (S)-2-amino-N-(((1r,3S)-3-(5,7-difluoro-2-(4-fluorophenyl)-1H-indol-3-yl)cyclobutyl)methyl)propanamide]"
3,> 1000,CN1CCC(CC(=O)N[C@H]2C[C@@H](c3c(-c4ccc(F)cc4)[nH]c4c(F)cc(F)cc43)C2)CC1 [Compound 52]
4,250 to 1000,"NC(=O)CC(=O)NC[C@H]1C[C@H](c2c(-c3ccc(F)cc3)[nH]c3c(F)cc(F)cc32)C1 [Compound 450, N^1-(((1r,3r)-3-(5,7-difluoro-2-(4-fluorophenyl)-1H-indol-3-yl)cyclobutyl)methyl)malonamide]"
5,> 1000,O=C(CN1CCOCC1)N[C@H]1C[C@H](c2c(-c3ccc(F)cc3)[nH]c3c(F)cc(F)cc32)C1 [Compound 121]
6,> 1000,"CCCS(=O)(=O)N[C@H]1C[C@@H](c2c(-c3ccc(F)cc3)[nH]c3c(F)cc(F)cc32)C1 [Compound 79, N-((1s,3s)-3-(5,7-difluoro-2-(4-fluorophenyl)-1H-indol-3-yl)cyclobutyl)propane-1-sulfonamide]"
7,> 1000,O=C(CC1CS(=O)(=O)C1)NC[C@H]1C[C@@H](c2c(-c3ccc(F)cc3)[nH]c3c(F)cc(F)cc32)C1 [Compound 231]
8,250 to 1000,"NC(=O)CC(=O)N[C@H]1C[C@H](c2c(-c3ccc(F)cc3)[nH]c3c(F)cc(F)cc32)C1 [Compound 447, N′-[3-[5,7-difluoro-2-(4-fluorophenyl)-1H-indol-3-yl]cyclobutyl]propanediamide]"
9,> 1000,O=C(NC[C@H]1C[C@H](c2c(-c3ccc(F)cc3)[nH]c3c(F)cc(F)cc32)C1)c1cn[nH]c1 [Compound 298]
10,> 1000,CC(C(=O)N[C@H]1C[C@H](c2c(-c3ccc(F)cc3)[nH]c3c(F)cc(F)cc32)C1)N(C)C (mixture of isomers) [Compound 111]
11,> 1000,O=C(CN1CCCC1)N[C@H]1C[C@@H](c2c(-c3ccc(F)cc3)[nH]c3c(F)cc(F)cc32)C1 [Compound 46]
12,> 1000,CC(C)(C)OC(=O)N1C[C@@H](O)C[C@H]1C(=O)NC[C@H]1C[C@H](c2c(-c3ccc(F)cc3)[nH]c3c(F)cc(F)cc32)C1 [Compound 252]
13,> 1000,O=c1ccc2cc(S(=O)(=O)NC[C@H]3C[C@H](c4c(-c5ccc(F)cc5)[nH]c5c(F)cc(F)cc54)C3)ccc2[nH]1 [Compound 417]
14,> 1000,COCC(C)NS(=O)(=O)NC[C@H]1C[C@H](c2c(-c3ccc(F)cc3)[nH]c3c(F)cc(F)cc32)C1 (mixture of isomers) [Compound 342]
15,250 to 1000,CC(C)(O)C(=O)N[C@H]1C[C@@H](c2c(-c3ccc(F)cc3)[nH]c3c(F)cc(F)cc32)C1 [Compound 74]
16,> 1000,CN(C)CC(=O)NC[C@H]1C[C@@H](c2c(-c3ccc(F)cc3)[nH]c3c(F)cc(F)cc32)C1 [Compound 320]
17,> 1000,Cn1ccnc1S(=O)(=O)N[C@H]1C[C@H](c2c(-c3ccc(F)cc3)[nH]c3c(F)cc(F)cc32)C1 [Compound 148]
18,< 250,NCC(=O)NC[C@H]1C[C@H](c2c(-c3ccc(F)cc3)[nH]c3c(F)cc(F)cc32)C1 [Compound 191]
19,> 1000,NC(C(=O)NC[C@H]1C[C@H](c2c(-c3ccc(F)cc3)[nH]c3c(F)cc(F)cc32)C1)C(F)(F)F (stereo partly shown) [Compound 233]
20,< 250,"O=C1NCCN1C[C@H]1C[C@H](c2c(-c3ccc(F)cc3)[nH]c3c(F)cc(F)cc32)C1 [Compound 373, 1-(((1r,3r)-3-(5,7-difluoro-2-(4-fluorophenyl)-1H-indol-3-yl)cyclobutyl)methyl)imidazolidin-2-one]"
21,> 1000,Cn1nccc1CC(=O)N[C@H]1C[C@@H](c2c(-c3ccc(F)cc3)[nH]c3c(F)cc(F)cc32)C1 [Compound 49]
22,< 250,CC(=O)N[C@H](C)C(=O)NC[C@H]1C[C@H](c2c(-c3ccc(F)cc3)[nH]c3c(F)cc(F)cc32)C1 [Compound 204]
23,> 1000,Cc1nccn1CC(=O)N[C@H]1C[C@H](c2c(-c3ccc(F)cc3)[nH]c3c(F)cc(F)cc32)C1 [Compound 126]
24,< 250,O=C(CCO)N[C@H]1C[C@H](c2c(-c3ccc(F)cc3)[nH]c3c(F)cc(F)cc32)C1 [Compound 95]
25,> 1000,CN1CCCC(CC(=O)N[C@H]2C[C@@H](c3c(-c4ccc(F)cc4)[nH]c4c(F)cc(F)cc43)C2)C1 (stereo partly shown) [Compound 39]
26,> 1000,C[C@H](O)[C@H](CO)NCC1CC(c2c(-c3ccc(F)cc3)[nH]c3c(F)cc(F)cc23)C1 (stereo partly shown) [Compound 392]
27,250 to 1000,NS(=O)(=O)CCCC(=O)N[C@H]1C[C@@H](c2c(-c3ccc(F)cc3)[nH]c3c(F)cc(F)cc32)C1 [Compound 58]
